Experimental data as given in US11344527B2, “Methods and compositions for treating cancer” (Sutter West Bay Hospitals, priority 2007, dated 2022).
pIC50: −log10 of the molar value. “Also recorded” adds a separate entry of the source. Like-named read-outs stand apart in the source and are kept apart here.

Legend:
Id-1 [1] = assay: Id-1 protein expression by quantitative Western analysis, MDA-MB231; format: cell-based, human; conditions: MDA-MB231 cells, 1.5 μM, two days, FIG. 1E
Excerpt: Proteins were separated by SDS/PAGE, blotted on Immobilon membrane, and probed with anti-Id-1 and the appropriate secondary antibody. Band intensity values were obtained directly from the blot using AlphaeaseFC software (San Leandro, Calif.) or from film using Image-J (NIH, MD). As a normalization control for loading, blots were stripped and re-probed with mouse alpha-tubulin (Abeam, Cambridge, Mass.).
The ability of CBD to regulate the expression of key genes that control breast cancer cell aggressiveness and invasiveness was determined A potential candidate protein that could mediate the effects of CBD on both phenotypes was the helix-loop-helix protein Id-1. […] The inhibitory effect of CBD on Id-1 expression occurred at concentrations as low as 100 nM. […] The CBD concentrations effective at inhibiting Id-1 expression correlated with those used to inhibit the proliferative and invasive phenotype of MDA-MB231 cells. Furthermore, the time period needed to observe the down-regulation of Id-1 protein in the presence of CBD correlated with the inhibitory effects of CBD on the aggressiveness and invasiveness of MDA-MB231 cells (FIG. 1, panel D).
In order to determine the SAR between cannabinoids and the inhibition of Id-1, MDA-MB231 cells were treated for two days with multiple cannabinoid compounds and Id-1 protein levels were assessed.

MDA-MB231 cells [2] = assay: Boyden chamber invasion assay, MDA-MB231; format: cell-based, human; conditions: for invasion of MDA-MB231 cells: 0.1, 1.0 or 1.5 μM, FIG. 1A
Protocol: Invasion is an important step towards breast cancer cell metastasis. Therefore, the effects of several cannabinoids were tested on their ability to modulate the migratory and invasiveness activity of the most aggressive human breast cancer cell line, MDA-MB231, in a reconstituted basement membrane in a Boyden chamber.

Id-1 promoter = Id-1 promoter luciferase reporter assay, MDA-MB231; format: cell-based, human; conditions: MDA-MB231 cells, 1.5 μM, 2 or 3 days; FIG. 2B, C
Protocol: A SacI-BspHI fragment of 2.2 kb corresponding to the 5′ upstream region of human Id-1 gene and driving a luciferase gene in a PGL-3 vector (Promega) has already been described (Id-1-sbsluc). Cells were plated in six well dishes in medium supplemented with 10% FBS and 5 μg/ml insulin. After 24 h, cells were cotransfected with […] of luciferase reporter plasmids and 2 μg of pCMVβ (Clontech) using superfect reagent (Qiagen). pCMVβ contained bacterial β-galactosidase and served to control for variation in transfection efficiency. 3 h after transfection, the cells were rinsed twice with PBS and were cultured in the absence or presence of CBD for 48-72 h. Cell pellets were lysed in 80 μl of reporter lysis buffer (Promega) for 10 min at room temperature. Lysed cells were centrifuged and supernatants harvested. […]
To determine if this effect was due to the inhibition of transcription, a construct was used that contained the Id-1 promoter fused to a luciferase reporter in a PGL-3 basic vector. […] Twenty-four hours after transfection, MDA-MB231-Id-1-luc cells were treated with CBD for 2 or 3 days and luciferase activity was measured (FIG. 2, panel B and panel C). […] These findings correlated to the data obtained when the expression of the Id-1 protein was assessed by Western analysis.

SF126 cells = assay: MTT cell proliferation assay, SF126 GBM cells; format: cell-based, human
Protocol: (§1) The human GBM cell lines used were SF126, U87 and U251. Cell lines were maintained at 37° C. and 5% CO2.
(§2) Treatment groups were divided into 1) no treatment (control), 2) Δ^9-THC alone, 3) CBD alone, 4) Δ^9-THC and CBD combined. Positive and negative aspects of constituent interaction were determined in this 2×2 design using 2-way analysis of variance as described by (Slinker, 1998). […] Significant differences were also determined using ANOVA where suitable. […] P values <0.05 defined statistical significance.

U87 cells = assay: MTT cell proliferation assay, U87 GBM cells; format: cell-based, human; conditions: 95% confidence limits
Protocol: as §1, §2

U251 cells [3] = assay: MTT cell proliferation assay, U251 GBM cells; format: cell-based, human; conditions: 95% confidence limits
Protocol: as §1, §2

Id-1 [4] = assay: Id-1 protein expression by Western blot, U251; format: cell-based, human; conditions: FIG. 11
ERK, JNK, and p38 MAPK = assay: MAPK activity (pERK, ERK, JNK, p38) by Western analysis, U251; format: cell-based, human
Protocol: Cells cultured and treated in 6-well dishes were washed twice with cold PBS. Lysis buffer was added and cells lysed by freezing for 10 min at −70° C. and then thawing. Cell lysate was collected and the concentration was determined using Bradford reagent. Equal amounts of protein were heated to 90° C. in Laemmli sample buffer with β-mercaptoethanol, and loaded onto a precast SDS-PAGE gel (Bio-Rad Laboratories, Hercules, Calif.). Protein was transferred to an Immobilon membrane (Millipore, Billerica, Mass.) overnight at 2-4° C. Blots were then blocked with 5% nonfat dry milk in TBS+Tween for 1 h. Primary antibody from Millipore (rabbit anti-phospho-JNK, rabbit anti-phospho-p38, rabbit anti-phospho-ERK1/2 and rabbit anti-ERK1/2, 1 mcg/mL) in blocking buffer was then added for 1 h. The blots were then rinsed three times 10 min with TBS+Tween. Secondary antibody (Donkey Anti-Rabbit IgG, Jackson Immunoresearch, West Grove, Pa.) was then added. Blots were incubated for 45 min and then washed 4 times for 15 min each. The blots were developed with SuperSignal Femto (Pierce, Rockford, Ill.), and imaged on either a Fluorchem 8900 (Alpha Innotech, San Leandro, Calif.) or ECL Hyperfilm (Amersham-Pharmacia, Piscataway, N.J.). Band intensity values were obtained (after background subtraction) directly from the […] using AlphaeaseFC software (San Leandro, Calif.) or from film using Image-J (NIH, MD). As a normalization control for loading, blots were stripped and re-probed with mouse alpha-tubulin (Abcam, Cambridge, Mass.) and goat anti-mouse IgG (Jackson Immunoresearch) for the primary and secondary antibodies, respectively.
The regulation of ERK, JNK, and p38 MAPK activity plays a role in controlling cell growth and apoptosis. U251 cells were used to determine whether modulation of ERK, JNK, and p38 MAPK activity occurred.

U251 cells [5] = assay: Cell cycle analysis (PI staining, FACS), U251; format: cell-based, human; conditions: Δ9-THC 1.7 μM and/or CBD 0.4 μM, FIG. 8
Protocol: U251 cells were grown in Petri dishes (100 mm×15 mm) and received drug treatments for 2 days. On the third day, the cells were harvested and centrifuged at 1200 rpm for 5 minutes. The pellet was washed 1× with PBS+1% BSA, and centrifuged again. The pellet was resuspended in 0.5 ml of 2% paraformaldehyde (diluted with PBS) and left to fix overnight at room temperature. The next day the cells were pelleted and resuspended in 0.5 ml 0.3% Triton in PBS and incubated for 5 minutes at room temperature. The cells were then washed 2 times with PBS+1% BSA. The cells were finally suspended in PBS (0.1% BSA) with 10 ug/ml Propidium Iodide and 100 μg/ml RNAse. The cells were incubated for 30 minutes at room temperature before being stored at 4 C. Cell cycle was measured using a FACS Calibur using Cell Quest Pro and Modfit software.

MDA-MB436 cells = assay: MTT cell proliferation assay, MDA-MB436; conditions: read-out: IC50 antiproliferative, MDA-MB436
MDA-MB231 cells [6] = assay: MTT cell proliferation assay, MDA-MB231; conditions: read-out: IC50 antiproliferative, MDA-MB231
[7] = Homo sapiens, SF-126, 72 h, three day treatment, 95% confidence limits (Table 4), read-out: IC50 antiproliferative, SF126
[8] = three day treatment, 95% confidence limits (Table 4), read-out: IC50 antiproliferative, SF126
[9] = treated for three days, value with confidence limits

For `C=C(C)[C@@H]1CCC(C)=C[C@H]1c1c(C)cc(O)cc1O` [0-1602], the “inhibition of Id-1 protein (structure activity relationship)” value (from here on “inhibition of Id-1 protein”) (Id-1 [1]) was “No inhibition”.

In the case of `C=C(C)[C@@H]1CCC(C)=C[C@H]1c1c(O)cc(O)cc1CCCCC` [Abn-CBD], the “inhibition of Id-1 protein” value (Id-1 [1]) was “No inhibition”.

In the case of `C=C(C)[C@@H]1CCC(C)=C[C@H]1c1c(O)cc(CCCCC)cc1O` [CBD, cannabidiol], the “cell invasiveness, control MDA-MB231 (-Id1) cells” value (MDA-MB231 cells [2]; 1.5 μM, two day treatment, empty pLXSN vector, FIG. 7) was “significant reduction”, the “invasion of MDA-MB231 cells” value (MDA-MB231 cells [2]) was “significantly reduced” and the “Id-1 promoter luciferase activity” value (Id-1 promoter) was “significant inhibition”. The pIC50 (SF126 cells; [7]) was 5.92, the pIC50 (SF126 cells; Homo sapiens, SF-126, 72 h, three day treatment, 95% confidence limits, read-out: CBD IC50, SF126) was 5.92 and the pIC50 (SF126 cells; Homo sapiens, SF-126, limits 0.64-0.82, reported with the Table 3 experiments, read-out: IC50 antiproliferative, SF126) was 6.14. The pIC50 (U87 cells; Homo sapiens, U-87 MG, 72 h, three day treatment, read-out: CBD IC50, U87) was 6.15, the pIC50 (U251 cells [3]; Homo sapiens, U-251, 72 h, three day treatment, read-out: CBD IC50, U251) was 6.22 and the “Id-1 protein expression in U251 cells” value (Id-1 [4]) was “concentration-dependent inhibition”. For the same molecule, the “p-ERK, higher concentrations alone compared with the combination” value (ERK, JNK, and p38 MAPK; U251, three days, 2.5 μM Δ9-THC, 2.0 μM CBD, or 1.7 μM/0.4 μM combination, FIG. 6D) was “small inhibition”, the p-ERK (ERK, JNK, and p38 MAPK; U251, Δ9-THC 1.7 μM and/or CBD 0.4 μM, two days, FIG. 4) was “no changes” and the cell cycle distribution (U251 cells [5]) was “increases in the population of cells in G1 and G2/M phase and decreases in cells in S phase”. It also gave a pIC50 (MDA-MB436 cells; Homo sapiens, MDA-MB-436, 72 h) of 5.82.

Molecule `CCCCCc1cc(O)c(C/C=C(\C)CCC=C(C)C)c(O)c1` [CBG, cannabigerol] has a pIC50 (SF126 cells; [7]) of 5.80, a pIC50 (MDA-MB231 cells [6]; Homo sapiens, MDA-MB-231, 72 h) of 5.64 and a pIC50 (MDA-MB436 cells; Homo sapiens, MDA-MB-436, 72 h) of 5.68.

`CCCCCc1cc(O)c2c(c1)OC(C)(C)c1ccc(C)cc1-2` [CBN, cannabinol] was tested, and the “inhibition of Id-1 protein” value (Id-1 [1]) was “partially inhibit”, the pIC50 (SF126 cells; [7]) was 5.92 and the pIC50 (MDA-MB231 cells [6]; Homo sapiens, MDA-MB-231, 72 h) was 5.92. The pIC50 (MDA-MB436 cells; Homo sapiens, MDA-MB-436, 72 h) was 5.59.

In the case of `CCCCCCC(C)(C)c1ccc([C@@H]2C[C@H](O)CC[C@H]2CCCO)c(O)c1` [CP 55,940], the “inhibition of Id-1 protein” value (Id-1 [1]) was “partially inhibit; also recorded: inhibited Id-1 expression”, the “inhibition of Id-1 protein” value (Id-1 [1]; 940) was “small inhibition” and the pIC50 (SF126 cells; [8]) was 5.48. For the same molecule, the pIC50 (MDA-MB231 cells [6]; [9]) was 5.60 and the pIC50 (MDA-MB436 cells; [9]) was 5.89.

With `Cc1c(C(=O)c2cccc3ccccc23)c2cccc3c2n1[C@H](CN1CCOCC1)CO3` [WIN 55,212-2] the “invasion of MDA-MB231 cells” value (MDA-MB231 cells [2]) was “significantly reduced”, the pIC50 (SF126 cells; seven day treatment, 95% confidence limits, read-out: IC50 antiproliferative, SF126) was 6.08 and the pIC50 (SF126 cells; [8]) was 5.89. The pIC50 (U87 cells; seven day treatment, read-out: IC50 antiproliferative, U87) was 6.11, the pIC50 (U251 cells [3]; seven day treatment, read-out: IC50 antiproliferative, U251) was 5.96 and the pIC50 (MDA-MB231 cells [6]; [9]) was 5.77. The pIC50 (MDA-MB436 cells; [9]) was 5.62.
